In brackets after ≈: the same amount, converted by molar mass. Where two headings read alike, the source gives them in different places.
How the values were obtained:
[1] = tested on: S. pneumoniae clinical isolate 6937; details: clinical isolate 6937, 18 h
[2] = Cytotoxicity assay, crystal violet staining; type: cell-based, canine; details: dog
Description: (§1) The cytotoxicity of zincophorin, methyl zincophorin, daptomycin (Chemos GmbH, Regenstauf, Germany), and imipenem (Sigma-Aldrich GmbH, Taufkirchen, Germany) was evaluated as described recently, [20]. Briefly, serial twofold compounds concentration were prepared in Eagle’s minimum essential medium supplemented with 2 mM L-glutamine or Dulbecco’s Modified Eagle Medium (Lonza Group Ltd., Basel, Switzerland) and added to three-day-old confluent human lung carcinoma cells (A549; Institute of Molecular Virology, University of Münster, Germany) and Madin-Darby canine kidney cell (MDCK; Friedrich-Loeffler Institute, Riems, Germany) monolayers grown in 96-well plates (Greiner bio-one GmbH, Frickenhausen, Germany), respectively. […] After dye elution and optical density measurement the 50% cytotoxic concentration (CC50) was calculated.

S. pneumoniae D39 [3] = tested on: S. pneumoniae D39
[4] = tested on: S. pneumoniae clinical isolate 8828; details: clinical isolate 8828, 18 h
S. pneumoniae D39 [5] = details: D39, 18 h
[6] = tested on: S. pneumoniae clinical isolate 8919; details: clinical isolate 8919, 18 h
S. pneumoniae DSM14378 [7] = tested on: S. pneumoniae DSM14378
[8] = Cytotoxicity assay, crystal violet staining; type: cell-based, human; details: human
Description: as §1

[9] = tested on: S. pneumoniae clinical isolate 8828
[10] = tested on: S. pneumoniae clinical isolate 8919
S. pneumoniae DSM14378 [11] = details: DSM14378, 18 h
S. pneumoniae DSM20566 [12] = details: DSM20566, 18 h
[13] = tested on: S. pneumoniae clinical isolate 6937
[14] = tested on: S. pneumoniae clinical isolate 9400; details: clinical isolate 9400, 18 h
[15] = tested on: S. pneumoniae clinical isolate 9400
S. pneumoniae DSM20566 [16] = tested on: S. pneumoniae DSM20566
[17] = tested on: S. pneumoniae clinical isolate 8828; assay: microbe, parasite or virus in culture; details: Streptococcus pneumoniae, 18 h, read-out: MIC (8828)
[18] = tested on: S. pneumoniae clinical isolate 8919; assay: microbe, parasite or virus in culture; details: Streptococcus pneumoniae, 18 h, read-out: MIC (8919)
[19] = tested on: S. pneumoniae clinical isolate 6937; assay: microbe, parasite or virus in culture; details: Streptococcus pneumoniae, 18 h, read-out: MIC (6937)
S. pneumoniae DSM20566 [20] = assay: microbe, parasite or virus in culture; details: Streptococcus pneumoniae, DSM20566, 18 h, read-out: MIC (DSM20566)
S. pneumoniae D39 [21] = assay: microbe, parasite or virus in culture; details: Streptococcus pneumoniae, D39, 18 h, read-out: MIC (D39)
[22] = tested on: S. pneumoniae clinical isolate 9400; assay: microbe, parasite or virus in culture; details: Streptococcus pneumoniae, 18 h, read-out: MIC (9400)
S. pneumoniae DSM14378 [23] = assay: microbe, parasite or virus in culture; details: Streptococcus pneumoniae, DSM14378, 18 h, read-out: MIC (DSM14378)
Streptococcus pneumoniae = assay: Antimicrobial assays, all tested S. pneumoniae strains; details: pneumococci; maximum tested concentration 50 µM; data not shown
[24] = tested on: Madin-Darby canine kidney cell (MDCK); assay: Cytotoxicity assay, crystal violet staining; type: cell-based; details: MDCK cells
Description: as §1

[25] = tested on: human lung carcinoma cells (A549); assay: Cytotoxicity assay, crystal violet staining; type: cell-based; details: A549 cells
Description: as §1

[26] = tested on: Clostridium welchii (Clostridium perfringens); details: cited from earlier work
[27] = reference strain D39, biofilm formation inhibited ≥90%, 24 h, TSB, mean with standard deviation
[28] = reference strain DSM14378, biofilm formation inhibited ≥90%, 24 h, TSB, mean with standard deviation
[29] = A549 lung carcinoma cells (confluent monolayers), A549 cells, 72 h, maximum tested 100 µM, mean with standard deviation, read-out: 50% cytotoxic concentration (CC50), A549
[30] = clinical isolate 6937, biofilm formation inhibited ≥90%, 24 h, TSB, mean with standard deviation
[31] = clinical isolate 9400, biofilm formation inhibited ≥90%, 24 h, TSB, mean with standard deviation
[32] = reference strain DSM20566, biofilm formation inhibited ≥90%, 24 h, TSB, mean with standard deviation
[33] = MDCK cells (confluent monolayers), MDCK cells, 72 h, maximum tested 100 µM, mean with standard deviation, read-out: 50% cytotoxic concentration (CC50), MDCK

| SMILES | MIC [17] [µM] | MIC [18] [µM] | MBIC (D39) (S. pneumoniae D39 [3]; [27]) [µM] | MIC [19] [µM] | MIC (S. pneumoniae DSM20566 [20]) [µM] | MBIC (DSM14378) (S. pneumoniae DSM14378 [7]; [28]) [µM] | CC50 at 72 h [8, 29] [µM] | MIC (S. pneumoniae D39 [21]) [µM] | MIC [22] [µM] | MIC (S. pneumoniae DSM14378 [23]) [µM] | MBIC (6937) [13, 30] [µM] | MBIC (9400) [15, 31] [µM] | MBIC (DSM20566) (S. pneumoniae DSM20566 [16]; [32]) [µM] | CC50 at 72 h [2, 33] [µM] | also measured |
| --- | --- | --- | --- | --- | --- | --- | --- | --- | --- | --- | --- | --- | --- | --- | --- |
| CCCCCCCCCC(=O)N[C@@H](Cc1c[nH]c2ccccc12)C(=O)N[C@H](CC(N)=O)C(=O)N[C@@H](CC(=O)O)C(=O)N[C@@H]1C(=O)NCC(=O)N[C@@H](CCCN)C(=O)N[C@@H](CC(=O)O)C(=O)N[C@H](C)C(=O)N[C@@H](CC(=O)O)C(=O)NCC(=O)N[C@H](CO)C(=O)N[C@@H]([C@H](C)CC(=O)O)C(=O)N[C@@H](CC(=O)c2ccccc2N)C(=O)O[C@@H]1C [daptomycin] |  |  |  |  |  |  |  |  |  |  |  |  |  |  | MIC (6937) [1]: 0.48 ± 0.18 µM (≈ 0.778 µg/mL); CC50 at 72 h [2]: > 100 µM; MBIC (D39) (S. pneumoniae D39 [3]; D39, 24 h): 6.10 ± 0.79 µM; MIC (8828) [4]: 0.86 ± 0.50 µM (≈ 1.39 µg/mL); MIC (D39) (S. pneumoniae D39 [5]): 2.80 ± 0.11 µM (≈ 4.54 µg/mL); MIC (8919) [6]: 0.31 ± 0.08 µM (≈ 0.502 µg/mL); MBIC (DSM14378) (S. pneumoniae DSM14378 [7]; DSM14378, 24 h): 1.99 ± 1.38 µM; CC50 at 72 h [8]: > 100 µM; MBIC (8828) ([9]; clinical isolate 8828, 24 h): 0.48 ± 0.21 µM; MBIC (8919) ([10]; clinical isolate 8919, 24 h): 0.49 ± 0.26 µM; MIC (DSM14378) (S. pneumoniae DSM14378 [11]): 0.54 ± 0.18 µM (≈ 0.875 µg/mL); MIC (DSM20566) (S. pneumoniae DSM20566 [12]): 1.94 ± 0.91 µM (≈ 3.14 µg/mL); MBIC (6937) ([13]; clinical isolate 6937, 24 h): 1.66 ± 1.21 µM; MIC (9400) [14]: 0.96 ± 0.56 µM (≈ 1.56 µg/mL); MBIC (9400) ([15]; clinical isolate 9400, 24 h): 2.28 ± 1.81 µM; MBIC (DSM20566) (S. pneumoniae DSM20566 [16]; DSM20566, 24 h): 1.92 ± 1.07 µM |
| C[C@@H](O)[C@H]1C(=O)N2C(C(=O)O)=C(SCCN=CN)C[C@H]12 [imipenem] | 0.02 (≈ 0.00599 µg/mL) | 0.49 ± 0.17 (≈ 0.147 µg/mL) | 0.07 ± 0.03 | 0.01 (≈ 0.00299 µg/mL) | 0.03 ± 0.01 (≈ 0.00898 µg/mL) | 0.19 ± 0.01 | > 100 | 0.02 (≈ 0.00599 µg/mL) | 0.01 ± 0.01 (≈ 0.00299 µg/mL) | 0.02 ± 0.01 (≈ 0.00599 µg/mL) | 0.22 ± 0.14 | 0.36 ± 0.02 | 0.06 ± 0.03 |  |  |
| CCC[C@@H](C)/C=C(\C)[C@H](O)[C@H](C)/C=C/CC[C@@H](O)[C@H](C)[C@H](O)[C@H](C)[C@H](O)[C@H](C)[C@H]1O[C@H]([C@H](C)C(=O)OC)CC[C@@H]1C [zincophorin methyl ester] |  |  |  |  |  |  | > 100 |  |  |  |  |  |  | > 100 | antibacterial effect (highest concentration without effect) (Streptococcus pneumoniae): > 50 µM |
| CCCC(C)C=C(C)C(O)C(C)C=CCCC(O)C(C)C(O)C(C)C(O)C(C)C1OC(C(C)C(=O)O)CCC1C (stereo not drawn) [zincophorin] | 0.22 ± 0.04 (≈ 0.125 µg/mL) | 0.09 ± 0.01 (≈ 0.0512 µg/mL) | 0.40 ± 0.24 | 0.18 (≈ 0.102 µg/mL) | 0.18 ± 0.02 (≈ 0.102 µg/mL) | 0.13 ± 0.06 | 1.02 ± 0.63 | 0.21 ± 0.11 (≈ 0.119 µg/mL) | 0.14 ± 0.07 (≈ 0.0796 µg/mL) | 0.1 ± 0.05 (≈ 0.0569 µg/mL) | 0.46 ± 0.25 | 0.36 ± 0.01 | 0.17 ± 0.03 | 0.63 ± 0.27 | cytotoxic effects in words, MDCK [24]: strong cytotoxic effects; cytotoxic effects in words, A549 [25]: strong cytotoxic effects; activity against Clostridium welchii [26]: particularly active; MBIC (8828) ([9]; clinical isolate 8828, biofilm formation inhibited ≥90%, 24 h, TSB, mean with standard deviation): 0.28 ± 0.06 µM; MBIC (8919) ([10]; clinical isolate 8919, biofilm formation inhibited ≥90%, 24 h, TSB, mean with standard deviation): 0.15 ± 0.01 µM |

Source: publication PMC6301713, “Zincophorin – biosynthesis in Streptomyces griseus and antibiotic properties” (GMS Infectious Diseases, 2016)
